Assay results reported in PMC10313001, “Carboxylic acids that drive mosquito attraction to humans activate ionotropic receptors” (PLOS Neglected Tropical Diseases, 2023).

Legend:
AaegIR75k3 = target: T1, AaegIR75k3 (Aedes aegypti, UniProt A0A6I8U3Y9); test: two-electrode voltage clamp, Xenopus oocytes expressing AaegIR75k3/AaegIR8a; format: cell-based
T1 construct: gene 5563739; with AaegIR8a
T1 sequence (A0A6I8U3Y9 20-624): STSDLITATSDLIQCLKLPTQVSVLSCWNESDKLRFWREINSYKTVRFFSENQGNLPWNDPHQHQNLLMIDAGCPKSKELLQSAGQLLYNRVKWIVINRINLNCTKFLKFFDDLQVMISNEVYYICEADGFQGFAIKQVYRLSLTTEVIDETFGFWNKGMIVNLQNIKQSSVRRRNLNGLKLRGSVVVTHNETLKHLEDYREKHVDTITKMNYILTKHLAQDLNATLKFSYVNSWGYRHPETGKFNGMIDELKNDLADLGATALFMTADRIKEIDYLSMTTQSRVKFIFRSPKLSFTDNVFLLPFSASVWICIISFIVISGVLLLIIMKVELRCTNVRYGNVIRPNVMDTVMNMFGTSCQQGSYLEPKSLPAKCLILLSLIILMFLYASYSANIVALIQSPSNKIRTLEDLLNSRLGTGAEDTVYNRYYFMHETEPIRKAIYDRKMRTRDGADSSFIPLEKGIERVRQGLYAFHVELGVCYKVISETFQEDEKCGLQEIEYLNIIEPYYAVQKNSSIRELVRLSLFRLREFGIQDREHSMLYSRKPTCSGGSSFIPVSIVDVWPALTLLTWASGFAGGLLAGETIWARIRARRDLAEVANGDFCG
T1 sequence (A0A1S4F362 23-913 partner): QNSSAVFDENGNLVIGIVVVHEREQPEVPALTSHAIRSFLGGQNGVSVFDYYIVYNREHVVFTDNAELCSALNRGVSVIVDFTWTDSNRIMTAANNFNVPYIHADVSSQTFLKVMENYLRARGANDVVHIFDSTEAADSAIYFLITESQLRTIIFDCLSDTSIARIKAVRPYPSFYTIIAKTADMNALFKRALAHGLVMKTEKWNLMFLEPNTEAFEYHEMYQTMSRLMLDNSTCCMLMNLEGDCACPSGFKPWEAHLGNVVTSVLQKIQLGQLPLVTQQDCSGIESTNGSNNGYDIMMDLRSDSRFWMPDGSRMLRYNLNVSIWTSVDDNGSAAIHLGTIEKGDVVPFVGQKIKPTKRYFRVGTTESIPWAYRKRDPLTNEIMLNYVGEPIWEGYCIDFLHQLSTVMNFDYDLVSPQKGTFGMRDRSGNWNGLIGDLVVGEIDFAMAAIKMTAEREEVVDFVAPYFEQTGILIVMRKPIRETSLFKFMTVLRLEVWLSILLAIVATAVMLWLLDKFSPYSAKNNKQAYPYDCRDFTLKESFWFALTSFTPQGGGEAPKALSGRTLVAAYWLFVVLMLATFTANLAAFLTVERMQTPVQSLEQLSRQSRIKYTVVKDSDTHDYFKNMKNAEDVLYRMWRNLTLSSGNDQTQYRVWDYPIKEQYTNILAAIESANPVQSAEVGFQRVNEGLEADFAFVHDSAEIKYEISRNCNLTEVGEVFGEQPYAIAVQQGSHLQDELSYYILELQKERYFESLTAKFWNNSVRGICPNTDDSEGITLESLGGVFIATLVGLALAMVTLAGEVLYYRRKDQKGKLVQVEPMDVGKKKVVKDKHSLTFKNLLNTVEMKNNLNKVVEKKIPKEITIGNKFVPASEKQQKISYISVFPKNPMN

AaegIR75k1 [1] = target: T2, AaegIR75k1 (Aedes aegypti, UniProt A0A6I8TFY9); test: two-electrode voltage clamp, Xenopus oocytes, single concentration […]; response about one quarter of nonanoic acid; format: cell-based
T2 construct: gene 5563741; with AaegIR8a
T2 sequence (A0A6I8TFY9 20-624): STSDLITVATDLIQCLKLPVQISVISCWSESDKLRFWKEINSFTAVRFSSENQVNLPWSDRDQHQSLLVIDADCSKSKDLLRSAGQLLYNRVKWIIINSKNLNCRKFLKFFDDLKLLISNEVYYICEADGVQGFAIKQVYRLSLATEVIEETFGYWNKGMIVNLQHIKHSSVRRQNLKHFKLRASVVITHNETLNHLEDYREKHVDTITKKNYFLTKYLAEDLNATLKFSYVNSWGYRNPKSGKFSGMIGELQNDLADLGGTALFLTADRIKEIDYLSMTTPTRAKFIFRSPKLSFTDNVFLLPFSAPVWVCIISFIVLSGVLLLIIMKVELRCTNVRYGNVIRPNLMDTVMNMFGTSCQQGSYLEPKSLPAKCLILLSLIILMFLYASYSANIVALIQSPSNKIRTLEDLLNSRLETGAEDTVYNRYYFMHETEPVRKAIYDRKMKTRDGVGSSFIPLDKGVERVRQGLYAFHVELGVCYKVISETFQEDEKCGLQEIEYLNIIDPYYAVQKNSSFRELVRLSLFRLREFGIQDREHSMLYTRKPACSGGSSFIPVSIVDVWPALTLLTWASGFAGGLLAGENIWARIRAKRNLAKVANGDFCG
T2 sequence (A0A1S4F362 23-913 partner): T1 sequence (A0A1S4F362 23-913 partner)

AaegIR75k1 [2] = target: T2, AaegIR75k1; test: two-electrode voltage clamp, Xenopus oocytes expressing AaegIR75k1/AaegIR8a; format: cell-based
AalbIR75e = test system: T3, AalbIR75e; test: two-electrode voltage clamp, Xenopus oocytes expressing AalbIR75e/AalbIR8a; format: cell-based, Aedes albopictus
T3 construct: gene Ir75e; with AalbIR8a

Compound | EC50 (AaegIR75k3) [µM] | two-electrode voltage clamp, Xenopus oocytes, single concentration 10^-4 M; resp (AaegIR75k1 [1]) | EC50 (AaegIR75k1 [2]) [µM] | EC50 (AalbIR75e) [µM]
CCCCCCCC(=O)O [octanoic acid] | 25.2 | also maximally activated by nonanoic acid, with responses four-fold greater than for octanoic acid |  | 
CCCCCCCCC(=O)O [nonanoic acid] | 18.1 |  | 9.94 | 8.64
